The results in this text go back to ChEMBL document CHEMBL1201862, “PubChem BioAssay data set” (2004).

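Results reflect a 48-hour exposure of cells in 96-well plates to compound at five concentrations. GI50 marks 50% less growth.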 Active and inactive are the calls of the source. Rule as the data show it: active = GI50 up to about 1.1 µM and inactive = higher. A value given as a limit tells only on which side of the number the result lay.

Test in all cases: inhibition of tumour cell growth, NCI panel, 48 h
Assay [1] relates to Malme-3M.
In assay [2] the test system is OVCAR-4.
Assay [3] deals with SN12C.
Assay [4] relates to SF-539.
For assay [5], the system named is ACHN.
Assay [6] concerns RXF 393.
Assay [7] relates to SK-MEL-2.
In assay [8] the test system is SK-MEL-5.
For assay [9], the system named is SW-620.
In assay [10] the test system is CCRF-CEM.
Assay [11] deals with EKVX.
The subject of assay [12] is KM12.
The test system of assay [13] is COLO 205.
Assay [14] concerns SNB-75.
In assay [15] the test system is UACC-62.
For assay [16], the system named is HT-29.
Assay [17] relates to A498.

`Cc1ccc(C(c2c(O)c3ccccc3n(-c3ccccc3)c2=O)c2c(O)c3ccccc3n(-c3ccccc3)c2=O)cc1`: the GI50 was > 100 µM (inactive) in assay [1]; > 100 µM (inactive) in assay [2]; > 100 µM (inactive) in [3]; > 100 µM (inactive) in assay [4]; 89.3 µM (inactive) in assay [5]; 53.2 µM (inactive) in assay [6]. Also, the GI50 in assay [7] was > 100 µM (inactive); in assay [8], > 100 µM (inactive); in assay [9] it was > 100 µM (inactive); in assay [10] it was 7.06 µM (inactive); in [11], 35.3 µM (inactive); in assay [12], > 100 µM (inactive). Also, the GI50 in assay [13] was > 100 µM (inactive).

With `CN(C)c1ccc(C(=C2C=CC(=[N+](C)C)C=C2)c2ccc(N(C)C)cc2)cc1` [GENTIAN VIOLET], the GI50 in assay [1] is 0.245 µM (active); in assay [2], 0.264 µM (active); in [3] it was 0.21 µM (active); in assay [4] it was 0.258 µM (active); in assay [5], 0.175 µM (active); in assay [6] it was 0.201 µM (active). Besides, the GI50 in assay [7] is 0.207 µM (active); in assay [8] it was 0.0809 µM (active); in assay [10], 0.102 µM (active); in assay [11] it was 0.368 µM (active); in [14], 0.182 µM (active); in [12], 0.0942 µM (active). Moreover, the GI50 in assay [13] was 0.189 µM (active); in [15] it was 0.143 µM (active).

With `COc1ccc(-c2c(N)[n+]([O-])c3ccccc3[n+]2[O-])cc1OC`, the GI50 in assay [1], in assay [2], in assay [3], in assay [4], in [5] and in [7] was > 100 µM (inactive) throughout. The GI50 in [8] is > 100 µM (inactive); in assay [9], > 100 µM (inactive); in [16], > 100 µM (inactive); in [11], > 100 µM (inactive); in assay [14], 65.9 µM (inactive); in assay [17], > 100 µM (inactive). Moreover, the GI50 in assay [12] and in [13] was > 100 µM (inactive) in each case.

On to `COC(=O)C1C(/C=C/c2ccoc2)ON2CCC[C@@H]12` (stereo partly drawn), for which the GI50 was 33.6 µM (inactive) in assay [1]; > 100 µM (inactive) in [2]; > 100 µM (inactive) in assay [3]; > 100 µM (inactive) in [4]; 67.8 µM (inactive) in [5]; 47.8 µM (inactive) in assay [6]. The GI50 in [7] is > 100 µM (inactive); in assay [9], > 100 µM (inactive); in [16], > 100 µM (inactive); in assay [11], > 100 µM (inactive); in [14], 87.5 µM (inactive); in [12], > 100 µM (inactive). Moreover, the GI50 in assay [13] is > 100 µM (inactive).

Take `Cn1c2ccccc2c2cc(-c3ccccc3)c3c(c21)C(=O)c1ccccc1C3=O`: the GI50 in assay [1] was 22.3 µM (inactive); in assay [2] it was 14.5 µM (inactive); in [3] it was 28.6 µM (inactive); in [4], 22.9 µM (inactive); in [7], 19.5 µM (inactive); in assay [9], 18.8 µM (inactive). In addition, the GI50 in [16] is 31.9 µM (inactive); in assay [10], 5.19 µM (inactive); in assay [11] it was > 10 µM (inactive); in assay [14] it was 34.4 µM (inactive); in assay [17], > 100 µM (inactive); in assay [12] it was 21.5 µM (inactive). Further, the values for the GI50 in [13] and in [15] were 31.5 µM (inactive) and 13.3 µM (inactive), respectively.

Regarding `Cc1ccc([N+](=O)[O-])cc1NC(=O)C(=O)Cc1nc2ccc(C(=O)c3ccccc3)cc2nc1O`, the GI50 in assay [1], in assay [2], in [3], in [4], in [5] and in assay [6] was > 100 µM (inactive) each time. The GI50 in assay [8] was > 100 µM (inactive); in assay [9], > 100 µM (inactive); in assay [16] it was > 100 µM (inactive); in assay [10], > 100 µM (inactive); in [11], > 100 µM (inactive); in [14] it was 56.5 µM (inactive). Moreover, the values for the GI50 in assay [12], in [13] and in assay [15] were 93.3 µM (inactive), > 100 µM (inactive) and > 100 µM (inactive), respectively.

With `CC(C)(C)C(C#N)(C#N)c1ccc(C(C#N)(C#N)C(C)(C)C)nn1`, the GI50 was > 100 µM (inactive) in assay [1]; 89.7 µM (inactive) in assay [2]; > 100 µM (inactive) in assay [3]; > 100 µM (inactive) in assay [4]; 82 µM (inactive) in assay [5]; 43.3 µM (inactive) in [6]. The GI50 in assay [7], in [8], in [9], in [16], in assay [10] and in [11] was > 100 µM (inactive) in each case. Further, the GI50 in assay [14] was 23.6 µM (inactive); in [12] it was > 100 µM (inactive); in assay [13], > 100 µM (inactive); in assay [15], > 100 µM (inactive).

Consider `COc1ccccc1NC(=O)CC(=O)N/N=C/c1ccc(N(CCC#N)S(=O)(=O)c2ccccc2)cc1`, for which the GI50 in assay [1], in assay [2], in assay [5], in [7], in assay [8] and in [9] was > 100 µM (inactive) in each case. For the same compound, the GI50 in assay [16], in assay [10], in [11], in assay [14], in assay [12] and in [13] was > 100 µM (inactive) throughout. In assay [15], the GI50 is > 100 µM (inactive).

For `CN(C(=O)c1ccc(Cl)cc1)C(=S)N1CCN(c2ccccn2)CC1`, the GI50 in [1], in [2], in assay [3], in assay [4], in [5] and in assay [6] was > 100 µM (inactive) in each case. The GI50 in [7], in assay [8], in assay [9], in assay [16], in [10] and in assay [14] was > 100 µM (inactive) throughout. In addition, the GI50 in [12], in assay [13] and in assay [15] was > 100 µM (inactive) each time.

Turning to `COc1cccc(/C(C=O)=C(\Cl)c2ccc(OC)c(OC)c2)c1`, the GI50 was 15.6 µM (inactive) in assay [1]; 16 µM (inactive) in assay [2]; 14.7 µM (inactive) in [3]; 16.6 µM (inactive) in assay [4]; 13.6 µM (inactive) in assay [5]; 12.3 µM (inactive) in assay [6]. The GI50 is 19.2 µM (inactive) in [7]; 12.7 µM (inactive) in assay [8]; 15.9 µM (inactive) in assay [9]; 14.4 µM (inactive) in assay [16]; 7.74 µM (inactive) in assay [10]; 17.9 µM (inactive) in assay [11]. Also, the GI50 in [14] is 5.04 µM (inactive); in assay [12], 15.7 µM (inactive); in assay [13], 14.5 µM (inactive); in [15], 4.63 µM (inactive).
